Source: US20230031406A1, “COMPOUNDS AND COMPOSITIONS FOR TREATING CONDITIONS ASSOCIATED WITH NLRP ACTIVITY” (Novartis AG, priority 2018, published 2023)
Where two headings read alike, the source gives them in different places. Values belong to the compound of their own block, whether it stands above or below them.

Tested on: PMA-differentiated THP-1 cells
Test: IL-1β production in PMA-differentiated THP-1 cells stimulated with gramicidin (hTHP-1 assay containing 2% fetal bovine serum; Procedures 1 and 2)
Format: cell-based, human
Details: 2% fetal bovine serum
How it was run: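 Secreted IL-1β, read by HTRF, after gramicidin challenge (5 μM, 2 h) of THP-1 cells differentiated with PMA (20 ng/ml, 16-18 h) and plated at 50,000 cells/well in 2% FBS medium. Compounds, 0.0017-100 μM final with 0.37% DMSO, were added 1 h before stimulation.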

[1] = Table B1, class symbols, read-out: Average IC50 of compounds in hTHP-1 assay: hTHP-1 IC50
[2] = Homo sapiens, THP-1, Table B1, numeric bounds, read-out: Average IC50 of compounds in hTHP-1 assay: hTHP-1 IC50
[3] = Homo sapiens, THP-1, Table B2, class symbols, read-out: hTHP-1 IC50
[4] = Homo sapiens, THP-1, Table B2, numeric bounds, read-out: hTHP-1 IC50
[5] = Table B3, hTHP-1 assay, class symbols, read-out: IC50
[6] = Homo sapiens, THP-1, Table B3, hTHP-1 assay, class symbols, read-out: IC50

IC50 [1]: 5 to 30 µM
SMILES: CC(C)(O)c1cc(S(N)(=O)=NC(=O)Nc2c3c(nc4c2CCC4)CCC3)nn1-c1ccccc1 (single isomer, unassigned) [Compound 159b, (S) or (R)-N′-((1,2,3,5,6,7-hexahydrodicyclo-penta[b,e]pyridin-8-yl)carbamoyl)-5-(2-hydroxypropan-2-yl)-1-phenyl-1H-pyrazole-3-sulfonimidamide]

IC50 [2]: > 30 µM
SMILES: CN(C)Cc1ccc(S(N)(=O)=NC(=O)Nc2c3c(nc4c2CCC4(C)C)CCC3)cc1 (single isomer, unassigned) [Compound 125a, (S) or (R)-N′-((3,3-dimethyl-1,2,3,5,6,7-hexahydro-dicyclopenta[b,e]pyridin-8-yl)carbamoyl)-4-((dimethylamino)meth-yl)benzene-sulfonimidamide]

IC50 [4]: > 30 µM
SMILES: Cc1c(C(F)F)nc2c(c1NC(=O)N=S(N)(=O)c1cnc(C(C)(C)O)s1)CCC2 (single isomer, unassigned) [Compound 647b, (S) or (R)-N′-((2-(difluoromethyl)-3-methyl-6,7-dihydro-5H-cyclopenta[b]pyridin-4-yl)carbamoyl)-2-(2-hydroxypropan-2-yl)thiazole-5-sulfonimidamide]

IC50 (Table B2, numeric bounds, read-out: hTHP-1 IC50): > 30 µM
SMILES: CCC1CCc2c1nc1c(c2NC(=O)N=S(N)(=O)c2ccn(C(F)F)n2)CCC1 (single isomer, unassigned) [Compound 668d, (S, R) or (S, S) or (R, S) or (R, R)-1-(Difluoromethyl)-N′-((3-ethyl-1,2,3,5,6,7-hexahydrodicyclopenta [b,e]pyridin-8-yl)carbamoyl)-1H-pyrazole-3-sulfonimidamide]

IC50 [2]: > 30 µM
IC50 [4]: > 30 µM
SMILES: Cc1cc(C2CC2)nc(NC(=O)N=S(N)(=O)c2ncc(C(C)(C)O)s2)n1 (single isomer, unassigned) [Compound 185b, (S) or (R)-N′-((4-cyclopropyl-6-methylpyrimidin-2-yl)carbamoyl)-5-(2-hydroxypropan-2-yl)thiazole-2-sulfonimidamide]

IC50 [5]: 0.04 to 0.2 µM
SMILES: CC(C)(O)c1cc(F)c(S(N)(=O)=NC(=O)Nc2c3c(nc(C4CC4)c2C2CC2)CCC3)s1 (single isomer, unassigned) [Example 697, (R) or (S)-N′-((2,3-dicyclopropyl-6,7-dihydro-5H-cyclopenta[b]pyridin-4-yl)carbamoyl)-3-fluoro-5-(2-hydroxypropan-2-yl) thiophene-2-sulfonimidamide]

IC50 [6]: 0.2 to 1 µM
SMILES: CC1(C)CCc2c1nc1c(c2NC(=O)N=S(N)(=O)c2cc([C@](C)(O)CO)cs2)CCC1 (stereo partly drawn) [Example 623, 4-((S)-1,2-dihydroxypropan-2-yl)-N′-((3,3-dimethyl-1,2,3,5,6,7-hexahydrodicyclopenta[b,e]pyridin-8-yl)carbamoyl)thiophene-2-sulfonimidamide]

IC50 [1]: 0.04 to 0.2 µM
SMILES: CC(C)n1ccc(S(N)(=O)=NC(=O)Nc2c3c(nc4c2CCC4(C)C)CCC3)n1 (single isomer, unassigned) [Compound 126a, (R) or (S)-N′-((3,3-dimethyl-1,2,3,5,6,7-hexahydro-dicyclopenta[b,e]pyridin-8-yl)carbamoyl)-1-isopropyl-1H-pyrazole-3-sulfonimidamide]

IC50 [6]: 1 to 5 µM
SMILES: CCc1c(CC(F)(F)F)nc2c(c1NC(=O)N=S(N)(=O)c1sc(C(C)(C)O)cc1F)CCC2 (stereo not drawn) [Example 594, N′-((3-ethyl-2-(2,2,2-trifluoroethyl)-6,7-dihydro-5H-cyclopenta[b]pyridin-4-yl)carbamoyl)-3-fluoro-5-(2-hydroxypropan-2-yl)thiophene-2-sulfonimidamide]

IC50 [3]: 5 to 30 µM
SMILES: NS(=O)(=NC(=O)Nc1c2c(nc3c1CCC31CC1)CCC2)c1cnn(C(F)F)c1 (stereo not drawn) [Compound 638, 1-(Difluoromethyl)-N′-((1′,5′,6′,7′-tetrahydro-2′H-spiro[cyclopropane-1,3′-dicyclopenta[b,e]pyridin]-8′-yl)carbamoyl)-1H-pyrazole-4-sulfonimidamide]

IC50 [4]: > 30 µM
SMILES: CC(C)(O)c1cccc(S(N)(=O)=NC(=O)Nc2c3c(nc4c2CCC4)CCC3)c1 (single isomer, unassigned) [Compound 625a, (S) or (R)-N′-((1,2,3,5,6,7-hexahydrodicyclopenta [b,e]pyridin-8-yl)carbamoyl)-3-(2-hydroxypropan-2-yl)benzene-sulfonimidamide]

IC50 [5]: 5 to 30 µM
SMILES: CCn1ccc(S(N)(=O)=NC(=O)Nc2c3c(nc(C4CC4)c2C2CC2)CCC3)n1 (single isomer, unassigned) [Example 700, (S) or (R)-N′-((2,3-dicyclopropyl-6,7-dihydro-5H-cyclopenta[b]pyridin-4-yl)carbamoyl)-1-ethyl-1H-pyrazole-3-sulfonimidamide]

IC50 [4]: > 30 µM
SMILES: C[C@@H]1CCc2c1nc1c(c2NC(=O)N=S(N)(=O)c2ccn(C)n2)CCC1 (single isomer, unassigned) [Compound 639a, (S) or (R)-1-Methyl-N′-(((R)-3-methyl-1,2,3,5,6,7-hexahydrodicyclopenta [b,e]pyridin-8-yl)carbamoyl)-1H-pyrazole-3-sulfonimidamide]

IC50 [1]: 5 to 30 µM
SMILES: CC(C)n1ccc(S(N)(=O)=NC(=O)Nc2c3c(nc4c2CCC42CC2)CCC3)n1 (single isomer, unassigned) [Compound 172a, (S) or (R)-1-Isopropyl-N′-((1′,5′,6′,7′-tetrahydro-2′H-spiro[cyclopropane-1,3′-dicyclopenta[b,e]pyridin]-8′-yl)carbamoyl)-1H-pyrazole-3-sulfonimidamide]

IC50 [3]: 5 to 30 µM
SMILES: Cc1c(C(F)(F)F)nc2c(c1NC(=O)N=S(N)(=O)c1ccn(C)n1)CCC2 (stereo not drawn) [Compound 730]

The remaining lines, values behind:

SMILES: Cc1c(C2(F)CC2)nc2c(c1NC(=O)N=S(N)(=O)c1sc(C(C)(C)O)cc1F)CCC2 (single isomer, unassigned) [Example 686, (S) or (R)-3-fluoro-N′-((2-(1-fluorocyclopropyl)-3-methyl-6,7-dihydro-5H-cyclopenta[b]pyridin-4-yl)carbamoyl)-5-(2-hydroxypropan-2-yl) thiophene-2-sulfonimidamide]
IC50 (Homo sapiens, THP-1, Table B3, hTHP-1 assay, numeric values, read-out: IC50): > 30 µM

SMILES: CC(C)(O)c1sc(S(N)(=O)=NC(=O)Nc2c3c(nc4c2CCC4(C)C)CCC3)nc1CO (stereo not drawn) [Compound 642, N′-((3,3-dimethyl-1,2,3,5,6,7-hexahydrodicyclopenta[b,e]pyridin-8-yl)carbamoyl)-4-(hydroxymethyl)-5-(2-hydroxypropan-2-yl)thiazole-2-sulfonimidamide]
IC50 [3]: 0.04 to 0.2 µM

SMILES: CC(C)c1ncc(F)c(C(C)C)c1NC(=O)N=S(N)(=O)c1ccc(CN(C)C)cc1 (stereo not drawn) [Compound 132, 4-((dimethylamino)methyl)-N′-((5-fluoro-2,4-diisopropylpyridin-3-yl)carbamoyl)benzenesulfon-imidamide]
IC50 [2]: > 27 µM

SMILES: C[C@@](O)(CO)c1cc(F)c(S(N)(=O)=NC(=O)Nc2c3c(nc4c2CCC42CC2)CCC3)s1 (stereo partly drawn) [Compound 716b]
IC50 [3]: 0.2 to 1 µM

SMILES: CC(C)(O)c1csc(S(N)(=O)=NC(=O)Nc2c3c(nc4c2CCC4(C)C)CCC3)c1 (single isomer, unassigned) [Compound 127b, (R) or (S)-N′-((3,3-dimethyl-1,2,3,5,6,7-hexahydro-dicyclopenta[b,e]pyridin-8-yl)carbamoyl)-4-(2-hydroxypropan-2-yl)thio-phene-2-sulfonimidamide]
IC50 [1]: 0.04 to 0.2 µM

SMILES: CCn1cc(F)c(S(N)(=O)=NC(=O)Nc2c(C)c(C3CC3)nc3c2CCC3)n1 (single isomer, unassigned) [Example 714, (S) or (R)-N′-((2-cyclopropyl-3-methyl-6,7-dihydro-5H-cyclopenta[b]pyridin-4-yl)carbamoyl)-1-ethyl-4-fluoro-1H-pyrazole-3-sulfonimidamide]
IC50 [5]: 1 to 5 µM

SMILES: CC(C)(O)c1cc(F)c(S(N)(=O)=NC(=O)Nc2c3c(nc(C(F)(F)F)c2C2CC2)CCC3)s1 (stereo not drawn) [Example 610]
IC50 [6]: 0.2 to 1 µM

SMILES: CC(C)c1ncc(F)c(C(C)C)c1NC(=O)N=S(N)(=O)c1nc(C(C)(C)O)cs1 (single isomer, unassigned) [Compound 163b, (S) or (R)-N′-((5-fluoro-2,4-diisopropylpyridin-3-yl)carbamoyl)-4-(2-hydroxypropan-2-yl)thiazole-2-sulfonimidamide]
IC50 [1]: 5 to 30 µM

SMILES: CC1(C)CCc2c1nc1c(c2NC(=O)N=[S@](N)(=O)c2cc([C@](C)(O)CO)cs2)CCC1 [Example 652, (S)-4-((S)-1,2-dihydroxypropan-2-yl)-N′-((3,3-dimethyl-1,2,3,5,6,7-hexahydrodicyclopenta[b,e]pyridin-8-yl)carbamoyl) thiophene-2-sulfonimidamide]
IC50 [6]: 5 to 30 µM

SMILES: CCn1cc(F)c(S(N)(=O)=NC(=O)Nc2c(C)c(CC(F)(F)F)nc3c2CCC3)n1 (stereo not drawn) [Example 619, 1-Ethyl-4-fluoro-N′-((3-methyl-2-(2,2,2-trifluoroethyl)-6,7-dihydro-5H-cyclopenta[b]pyridin-4-yl)carbamoyl)-1H-pyrazole-3-sulfonimidamide]
IC50 [6]: 1 to 5 µM

SMILES: CC(C)(O)c1cnc(S(N)(=O)=NC(=O)Nc2c3c(nc4c2CCC42CC2)CCC3)s1 (single isomer, unassigned) [Compound 683b, (S) or (R)-5-(2-Hydroxypropan-2-yl)-N′-((1′,5′,6′,7′-tetrahydro-2′H-spiro[cyclopropane-1,3′-dicyclopenta[b,e]pyridin]-8′-yl)carbamoyl)thiazole-2-sulfonimidamide]
IC50 (Table B2, class symbols, read-out: hTHP-1 IC50): 5 to 30 µM
